Data published in PubChem BioAssay (NCI).
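How tested: cells in 96-well plates exposed to compound for 48 hours at five concentrations. Abbreviation: GI50, concentration required for 50% inhibition of growth. TGI: total growth inhibition.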

Assays:
Experiment in all cases: NCI-60 cell line screen, 48 h
[1] = test system: SF-268 CNS
[2] = test system: A498 renal
[3] = test system: SR leukemia
[4] = test system: MDA-MB-231 breast
[5] = test system: NCI/ADR-RES ovarian
[6] = test system: CCRF-CEM leukemia
[7] = test system: SNB-75 CNS
[8] = test system: MDA-N
[9] = test system: TK-10 renal
[10] = test system: OVCAR-5 ovarian
[11] = test system: HOP-62 NSCLC
[12] = test system: NCI-H522 lung
[13] = test system: COLO 205 colon
[14] = test system: RXF 393 renal
[15] = test system: UACC-62 melanoma
[16] = test system: LOX IMVI melanoma
[17] = test system: BT-549 breast
[18] = test system: HCT-15 colon
[19] = test system: RPMI-8226 leukemia
[20] = test system: DU-145 prostate
[21] = test system: HS 578T breast
[22] = test system: NCI-H460 lung
[23] = test system: SF-295 CNS
[24] = test system: U251 CNS
[25] = test system: HT29 colon
[26] = test system: EKVX NSCLC
[27] = test system: CAKI-1 renal
[28] = test system: ACHN renal
[29] = test system: KM12 colon
[30] = test system: IGROV1 ovarian
[31] = test system: SK-MEL-2 melanoma
[32] = test system: HCT-116 colon
[33] = test system: SK-MEL-28 melanoma
[34] = test system: SW-620 colon
[35] = test system: OVCAR-8 ovarian
[36] = test system: SF-539 CNS
[37] = test system: HCC-2998 colon
[38] = test system: OVCAR-4 ovarian
[39] = test system: PC-3 prostate
[40] = test system: OVCAR-3 ovarian
[41] = test system: MDA-MB-435
[42] = test system: T-47D breast
[43] = test system: K-562 leukemia
[44] = test system: SNB-19 CNS
[45] = test system: NCI-H226 lung
[46] = test system: HOP-92 NSCLC
[47] = test system: MOLT-4 leukemia
[48] = test system: 786-0 renal
[49] = test system: UACC-257 melanoma
[50] = test system: NCI-H23 lung
[51] = test system: SK-MEL-5 melanoma
[52] = test system: MCF7 breast
[53] = test system: MALME-3M melanoma
[54] = test system: M14 melanoma
[55] = test system: HL-60(TB) leukemia
[56] = test system: UO-31 renal
[57] = test system: A549 NSCLC
[58] = test system: SN12C renal
[59] = test system: SK-OV-3 ovarian

CN/N=C(\C)C(CN(C)C)C(c1ccccc1)c1c(O)c2ccccc2oc1=O (stereo not given) was tested, and the TGI [1] was > 100 µM, the TGI [2] was > 100 µM and the TGI [3] was > 100 µM. The TGI [4] was > 100 µM, the TGI [5] was > 100 µM and the TGI [6] was > 100 µM. The TGI [7] was > 100 µM, the TGI [8] was > 100 µM and the TGI [9] was > 100 µM. The TGI [10] was > 100 µM, the TGI [11] was > 100 µM and the TGI [12] was > 100 µM. The TGI [13] was > 100 µM, the TGI [14] was > 100 µM and the TGI [15] was > 100 µM. The TGI [16] was > 100 µM, the TGI [17] was > 100 µM and the TGI [18] was > 100 µM. The TGI [19] was > 100 µM, the TGI [20] was > 100 µM and the TGI [21] was > 100 µM. The TGI [22] was > 100 µM, the TGI [23] was > 100 µM and the TGI [24] was > 100 µM. For the same compound, the TGI [25] was > 100 µM, the TGI [26] was > 100 µM and the TGI [27] was > 100 µM. The TGI [28] was > 100 µM, the TGI [29] was > 100 µM and the TGI [30] was > 100 µM. For the same compound, the TGI [31] was > 100 µM, the TGI [32] was > 100 µM and the TGI [33] was > 100 µM. For the same compound, the TGI [34] was > 100 µM, the TGI [35] was > 100 µM and the TGI [36] was > 100 µM. The TGI [37] was > 100 µM, the TGI [38] was > 100 µM and the TGI [39] was > 100 µM. The TGI [40] was > 100 µM, the TGI [41] was > 100 µM and the TGI [42] was > 100 µM. For the same compound, the TGI [43] was > 100 µM, the TGI [44] was > 100 µM and the TGI [45] was > 100 µM. For the same compound, the TGI [46] was 6.78 µM, the TGI [47] was > 100 µM and the TGI [48] was > 100 µM. The TGI [49] was > 100 µM, the TGI [50] was > 100 µM and the TGI [51] was > 100 µM. The TGI [52] was > 100 µM, the TGI [53] was > 100 µM and the TGI [54] was > 100 µM. For the same compound, the TGI [55] was > 100 µM, the TGI [56] was > 100 µM and the TGI [57] was > 100 µM. The TGI [58] was > 100 µM.
For Cc1ccc(S(=O)(=O)NNC(=O)c2cc(C)c(C)cc2N)cc1, the TGI [2] was > 100 µM, the TGI [3] was > 100 µM and the TGI [4] was > 100 µM. The TGI [5] was > 100 µM, the TGI [6] was > 100 µM and the TGI [7] was > 100 µM. For the same compound, the TGI [8] was > 100 µM, the TGI [10] was > 100 µM and the TGI [11] was > 100 µM. The TGI [12] was > 100 µM, the TGI [13] was > 100 µM and the TGI [14] was > 100 µM. The TGI [15] was > 100 µM, the TGI [16] was > 100 µM and the TGI [17] was > 100 µM. The TGI [18] was > 100 µM, the TGI [19] was > 100 µM and the TGI [20] was > 100 µM. The TGI [21] was > 100 µM, the TGI [22] was > 100 µM and the TGI [23] was > 100 µM. The TGI [24] was > 100 µM, the TGI [25] was > 100 µM and the TGI [26] was > 100 µM. For the same compound, the TGI [27] was > 100 µM, the TGI [28] was > 100 µM and the TGI [29] was > 100 µM. The TGI [30] was > 100 µM, the TGI [32] was > 100 µM and the TGI [33] was > 100 µM. For the same compound, the TGI [34] was > 100 µM, the TGI [35] was > 100 µM and the TGI [36] was > 100 µM. For the same compound, the TGI [37] was > 100 µM, the TGI [38] was > 100 µM and the TGI [39] was > 100 µM. For the same compound, the TGI [40] was > 100 µM, the TGI [41] was > 100 µM and the TGI [42] was > 100 µM. For the same compound, the TGI [43] was > 100 µM, the TGI [44] was > 100 µM and the TGI [45] was > 100 µM. For the same compound, the TGI [46] was > 100 µM, the TGI [47] was > 100 µM and the TGI [48] was > 100 µM. For the same compound, the TGI [49] was > 100 µM, the TGI [50] was > 100 µM and the TGI [51] was > 100 µM. For the same compound, the TGI [52] was > 100 µM, the TGI [53] was > 100 µM and the TGI [59] was > 100 µM. The TGI [55] was > 100 µM, the TGI [56] was > 100 µM and the TGI [58] was > 100 µM.
O=[N+]([O-])c1ccc(C=NCC2CCCN3CCCCC23)cc1 (stereo not given) was tested, and the TGI [1] was > 100 µM, the TGI [2] was > 100 µM and the TGI [3] was > 100 µM. The TGI [4] was > 100 µM, the TGI [5] was > 100 µM and the TGI [6] was > 100 µM. For the same compound, the TGI [7] was > 100 µM, the TGI [8] was > 100 µM and the TGI [9] was > 100 µM. The TGI [10] was > 100 µM, the TGI [11] was > 100 µM and the TGI [12] was > 100 µM. The TGI [13] was > 100 µM, the TGI [14] was > 100 µM and the TGI [15] was > 100 µM. For the same compound, the TGI [16] was 30.4 µM, the TGI [17] was > 100 µM and the TGI [18] was > 100 µM. The TGI [19] was 48.1 µM, the TGI [20] was > 100 µM and the TGI [21] was > 100 µM. For the same compound, the TGI [22] was > 100 µM, the TGI [23] was > 100 µM and the TGI [24] was > 100 µM. For the same compound, the TGI [25] was 34.9 µM, the TGI [26] was > 100 µM and the TGI [27] was > 100 µM. For the same compound, the TGI [28] was > 100 µM, the TGI [29] was > 100 µM and the TGI [30] was > 100 µM. The TGI [31] was > 100 µM, the TGI [32] was > 100 µM and the TGI [33] was > 100 µM. For the same compound, the TGI [34] was > 100 µM, the TGI [35] was > 100 µM and the TGI [37] was > 100 µM. The TGI [38] was > 100 µM, the TGI [39] was > 100 µM and the TGI [41] was > 100 µM. For the same compound, the TGI [42] was > 100 µM, the TGI [43] was > 100 µM and the TGI [44] was > 100 µM. The TGI [46] was > 100 µM, the TGI [47] was > 100 µM and the TGI [48] was 52.1 µM. For the same compound, the TGI [49] was > 100 µM, the TGI [50] was > 100 µM and the TGI [51] was > 100 µM. The TGI [52] was 66.6 µM, the TGI [53] was > 100 µM and the TGI [54] was > 100 µM. The TGI [59] was > 100 µM, the TGI [55] was > 100 µM and the TGI [56] was > 100 µM. For the same compound, the TGI [57] was > 100 µM and the TGI [58] was > 100 µM.
For C=C1C(=O)O[C@@H]2C=C(C)C3=CC(=O)[C@](C)(C[C@H](OC(=O)/C(C)=C\C)[C@@H]12)O3, the TGI [3] was 0.786 µM, the TGI [4] was 2.24 µM and the TGI [5] was 3.64 µM. For the same compound, the TGI [6] was 0.82 µM, the TGI [7] was 26.3 µM and the TGI [8] was 1.49 µM. For the same compound, the TGI [9] was 2.19 µM, the TGI [10] was 3.86 µM and the TGI [11] was 10.5 µM. The TGI [12] was 0.394 µM, the TGI [13] was 2 µM and the TGI [14] was 1.52 µM. It also gave a TGI [15] of 2.06 µM, a TGI [16] of 0.979 µM and a TGI [17] of 1.98 µM. For the same compound, the TGI [18] was 2.06 µM, the TGI [19] was 0.938 µM and the TGI [20] was 15.8 µM. For the same compound, the TGI [21] was 17.7 µM, the TGI [22] was 7.73 µM and the TGI [23] was 6.47 µM. The TGI [24] was 4.85 µM, the TGI [25] was 2.73 µM and the TGI [26] was 8.78 µM. For the same compound, the TGI [27] was 1.38 µM, the TGI [28] was 3 µM and the TGI [29] was 2.99 µM. It also gave a TGI [30] of 3.04 µM, a TGI [31] of 6.73 µM and a TGI [32] of 0.868 µM. For the same compound, the TGI [33] was 3.03 µM, the TGI [34] was 1.33 µM and the TGI [35] was 2.18 µM. It also gave a TGI [36] of 6.09 µM, a TGI [37] of 3.06 µM and a TGI [39] of 5.01 µM. It also gave a TGI [40] of 1.71 µM, a TGI [41] of 3.74 µM and a TGI [42] of 3.81 µM. For the same compound, the TGI [43] was 2.04 µM, the TGI [44] was 22.4 µM and the TGI [45] was 4.99 µM. For the same compound, the TGI [46] was 2.18 µM, the GI50 [47] was 353 nM and the TGI [47] was 1.5 µM. It also gave a TGI [48] of 1.54 µM, a TGI [49] of 8.62 µM and a TGI [50] of 3.43 µM. It also gave a TGI [51] of 2.03 µM, a TGI [52] of 1.63 µM and a TGI [53] of 7.5 µM. The TGI [54] was 2.46 µM, the TGI [59] was 16.8 µM and the TGI [55] was 0.563 µM. For the same compound, the TGI [56] was 2.37 µM, the TGI [57] was 10.1 µM and the TGI [58] was 5.1 µM.
